Assay: Polymerization / stability of the molecule in solution with water
Format: physicochemical
Settings: industrially-available preparation placed in solution with water
Description: Solutions of industrially-available preparations (e.g. 3-(trihydroxysilyl) propyldimethyloctadecyl ammonium chloride) were placed in solution with water. It was discovered that at higher concentrations (e.g. at or above about 3 to 4 percent weight/volume) the molecules polymerize to an unsatisfactory degree, making a stable solution either impossible or heavier and unsuitable for saturating a wipe-type substrate or spraying onto a surface or substrate. […] These solutions remain stable in impregnated or saturated substrates (e.g. wipes in a liquid-tight containers) or in a bottle or other container for the solution. […] When the substrate is used to wipe, the solution with the solute remains on the wiped surface in a layer. As the solvent is dried, by evaporation or otherwise, the solute remains in a dry physical layer that remains to physically combat microbes.

## CCCCCCCCCCCCCCCCCC[N+](C)(C)CCC[Si](O)(O)O.[Cl-] [3-(trihydroxysilyl) propyldimethyloctadecyl ammonium chloride]
  Concentration in water at which the molecules polymerize to an unsatisfactory degree: 3 to 4 percent weight/volume

Source: patent US8968771B2, “Articles and methods for applying antimicrobial protection” (Coeus Technology, Inc., priority 2011, dated 2015)
